Results published in ChEMBL document CHEMBL5236606, “Synthesis, Structure-Activity Relationships, and In Vivo Evaluation of Novel C-17 Amine Derivatives Based on GSK3640254 as HIV-1 Maturation Inhibitors with Broad Spectrum Activity” (J Med Chem, 2022).
≈ marks a conversion by molar mass, not a printed value.

What was measured:
[1] = test system: Human immunodeficiency virus 1; assay: Antiviral activity against wild type HIV-1 NLRepRlucP373S harboring deltaV370 mutant infected in human MT2 cells assessed as inhibition of viral growth measured after 4 to 5 days by Dual luciferase reporter assay; format: functional, organism-based; details: Human immunodeficiency virus 1, NLRepRlucP373S
[2] = test system: Human immunodeficiency virus 1; assay: Antiviral activity against wild type HIV-1 NLRepRlucP373S harboring V370A mutant infected in human MT2 cells assessed as inhibition of viral growth measured after 4 to 5 days by Dual luciferase reporter assay; format: functional, organism-based; details: Human immunodeficiency virus 1, NLRepRlucP373S
[3] = Protein binding in human plasma by ultracentrifugation method; format: ADME, cell-free; details: read-out: PPB
[4] = Fold resistance, ratio of EC50 for antiviral activity against wild type HIV-1 NLRepRlucP373S infected in human MT2 cells assessed as inhibition of viral growth in presence of 10% FBS and 40% human serum supplemented with 27mg/mL of human serum albumin to EC50 for antiviral activity against wild type HIV-1 NLRepRlucP373S infected in human MT2 cells assessed as inhibition of viral growth; format: functional, Human immunodeficiency virus 1
[5] = test system: Human immunodeficiency virus 1; assay: Antiviral activity against wild type HIV-1 NLRepRlucP373S harboring V362I/V370A mutant infected in human MT2 cells assessed as inhibition of viral growth measured after 4 to 5 days by Dual luciferase reporter assay; format: functional, organism-based; details: Human immunodeficiency virus 1, NLRepRlucP373S
[6] = test system: Human immunodeficiency virus 1; assay: Antiviral activity against wild type HIV-1 NLRepRlucP373S harboring T332S/V362I/prR41G mutant infected in human MT2 cells assessed as inhibition of viral growth measured after 4 to 5 days by Dual luciferase reporter assay; format: functional, organism-based; details: Human immunodeficiency virus 1, NLRepRlucP373S
[7] = Cytotoxicity against human MT2 cells assessed as reduction in cell viability; format: toxicity, cell-based
[8] = test system: Human immunodeficiency virus 1; assay: Antiviral activity against wild type HIV-1 NLRepRlucP373S infected in human MT2 cells assessed as inhibition of viral growth measured after 4 to 5 days by Dual luciferase reporter assay; format: functional, organism-based; details: Human immunodeficiency virus 1, NLRepRlucP373S
[9] = test system: Human immunodeficiency virus 1; assay: Antiviral activity against wild type HIV-1 NLRepRlucP373S harboring R361K/V362I/L363M mutant infected in human MT2 cells assessed as inhibition of viral growth measured after 4 to 5 days by Dual luciferase reporter assay; format: functional, organism-based; details: Human immunodeficiency virus 1, NLRepRlucP373S
[10] = Solubility of the compound in FeSSIF at pH 5.0; format: ADME
[11] = Oral bioavailability in Sprague-Dawley rat at 5 mg/kg by LC-MS/MS analysis; format: ADME, organism-based; details: in vivo
[12] = Cmax in Beagle dog at 5 mg/kg, po administered as spray-dried dispersion in 99.5% water/0.5% methocel E4M by LC-MS/MS analysis; format: ADME, organism-based, Canis lupus familiaris; design: dose 5 mg/kg, route po; details: in vivo
[13] = Cmax in Beagle dog at 5 mg/kg, po administered as solution in 98% citrate buffer/2% sulfobutylether-beta-cyclodextrin by LC-MS/MS analysis; format: ADME, organism-based, Canis lupus familiaris; design: dose 5 mg/kg, route po; details: in vivo
[14] = Metabolic stability in dog liver microsomes assessed as half life at 0.5 uM in presence of NADPH by LC-MS/MS analysis; format: ADME, Canis lupus familiaris, Microsome
[15] = MRT in Sprague-Dawley rat at 1 mg/kg, iv by LC-MS/MS analysis; format: ADME, organism-based; details: in vivo
[16] = Oral bioavailability in Beagle dog at 5 mg/kg administered as solution in 98% citrate buffer/2% sulfobutylether-beta-cyclodextrin by LC-MS/MS analysis; format: ADME, organism-based, Canis lupus familiaris; details: in vivo
[17] = Metabolic stability in human liver microsomes assessed as half life at 0.5 uM in presence of NADPH by LC-MS/MS analysis; format: ADME, Microsome
[18] = Half life in Beagle dog at 1 mg/kg, iv by LC-MS/MS analysis; format: ADME, organism-based, Canis lupus familiaris; details: in vivo
[19] = Clearance in Beagle dog at 1 mg/kg, iv by LC-MS/MS analysis; format: ADME, organism-based, Canis lupus familiaris; details: in vivo
[20] = test system: Human immunodeficiency virus 1; assay: Antiviral activity against wild type HIV-1 NLRepRlucP373S harboring A326T/V362I/V370A mutant infected in human MT2 cells assessed as inhibition of viral growth measured after 4 to 5 days by Dual luciferase reporter assay; format: functional, organism-based; details: Human immunodeficiency virus 1, NLRepRlucP373S
[21] = Volume of distribution at steady state in Sprague-Dawley rat at 1 mg/kg, iv by LC-MS/MS analysis; format: ADME, organism-based; details: in vivo, read-out: Vdss
[22] = Metabolic stability in rat liver microsomes assessed as half life at 0.5 uM in presence of NADPH by LC-MS/MS analysis; format: ADME, Microsome
[23] = AUCt in Sprague-Dawley rat at 5 mg/kg, po by LC-MS/MS analysis; format: ADME, organism-based; design: dose 5 mg/kg, route po; details: in vivo
[24] = Volume of distribution at steady state in Beagle dog at 1 mg/kg, iv by LC-MS/MS analysis; format: ADME, organism-based, Canis lupus familiaris; details: in vivo, read-out: Vdss
[25] = AUCt in Beagle dog at 5 mg/kg, po administered as spray-dried dispersion in 99.5% water/0.5% methocel E4M by LC-MS/MS analysis; format: ADME, organism-based, Canis lupus familiaris; design: dose 5 mg/kg, route po; details: in vivo
[26] = Half life in Sprague-Dawley rat at 1 mg/kg, iv by LC-MS/MS analysis; format: ADME, organism-based; details: in vivo
[27] = MRT in Beagle dog at 1 mg/kg, iv by LC-MS/MS analysis; format: ADME, organism-based, Canis lupus familiaris; details: in vivo
[28] = test system: Human immunodeficiency virus 1; assay: Antiviral activity against wild type HIV-1 NLRepRlucP373S infected in human MT2 cells assessed as inhibition of viral growth measured after 4 to 5 days in presence of 10% FBS and 40% human serum supplemented with 27 mg/mL of human serum albumin by Dual luciferase reporter assay; format: functional, organism-based; details: Human immunodeficiency virus 1, NLRepRlucP373S
[29] = AUCt in Beagle dog at 5 mg/kg, po administered as solution in 98% citrate buffer/2% sulfobutylether-beta-cyclodextrin by LC-MS/MS analysis; format: ADME, organism-based, Canis lupus familiaris; design: dose 5 mg/kg, route po; details: in vivo
[30] = Clearance in Sprague-Dawley rat at 1 mg/kg, iv by LC-MS/MS analysis; format: ADME, organism-based; details: in vivo
[31] = Solubility of compound in FaSSIF at pH 6.5; format: ADME
[32] = molecular target: Albumin (Homo sapiens, UniProt P02768); assay: Protein binding in human serum albumin assessed as fraction bound at 53 nM incubated for 1 hrs by ultracentrifugation method; format: ADME, cell-free; details: read-out: PPB (converted)
Sequence of Albumin (P02768 whole entry): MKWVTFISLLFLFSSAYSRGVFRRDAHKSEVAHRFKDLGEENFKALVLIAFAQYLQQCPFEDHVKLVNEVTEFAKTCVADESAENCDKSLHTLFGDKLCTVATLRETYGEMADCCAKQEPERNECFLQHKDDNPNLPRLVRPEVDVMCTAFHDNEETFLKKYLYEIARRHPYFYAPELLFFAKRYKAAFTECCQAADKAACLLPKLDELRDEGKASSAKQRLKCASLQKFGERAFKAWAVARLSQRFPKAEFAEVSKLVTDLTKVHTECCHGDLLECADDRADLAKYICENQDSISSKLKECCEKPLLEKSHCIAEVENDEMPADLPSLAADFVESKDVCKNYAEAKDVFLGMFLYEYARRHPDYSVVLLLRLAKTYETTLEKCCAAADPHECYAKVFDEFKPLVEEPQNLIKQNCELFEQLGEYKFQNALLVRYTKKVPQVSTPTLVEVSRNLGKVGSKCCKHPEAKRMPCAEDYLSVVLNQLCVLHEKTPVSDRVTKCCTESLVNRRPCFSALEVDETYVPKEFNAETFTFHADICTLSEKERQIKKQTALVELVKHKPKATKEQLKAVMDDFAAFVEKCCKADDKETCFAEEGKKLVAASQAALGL

[33] = Oral bioavailability in Beagle dog at 5 mg/kg administered as spray-dried dispersion in 99.5% water/0.5% methocel E4M by LC-MS/MS analysis; format: ADME, organism-based, Canis lupus familiaris; details: in vivo
[34] = Cmax in Sprague-Dawley rat at 5 mg/kg, po by LC-MS/MS analysis; format: ADME, organism-based; design: dose 5 mg/kg, route po; details: in vivo

Compound	EC50 [1] [nM]	EC50 [2] [nM]	fold change (FC) [4]	EC50 [5] [nM]	EC50 [6] [nM]	CC50 [7] [nM]	EC50 [8] [nM]	EC50 [9] [nM]	solubility [10] [µM]	bioavailability [11] [%]	half-life at 0.5 µM [14] [h]	MRT [15] [h]	half-life at 0.5 µM [17] [h]	EC50 [20] [nM]	Vd [21] [L/kg]	half-life at 0.5 µM [22] [h]	AUC(0-t) [23] [µM·h]	clearance [30] [mL/min/kg]	solubility [31] [µM]	fraction unbound at 1 h, 0.053 µM [32]	other results
C=C(C)[C@@H]1CC[C@]2(C(=O)NCCO)CC[C@]3(C)[C@H](CC[C@@H]4[C@@]5(C)CC=C(c6ccc(C(=O)O)cc6)C(C)(C)[C@@H]5CC[C@]43C)[C@@H]12	> 2000	41																			
C=C(C)[C@@H]1CC[C@]2(C(=O)O)CC[C@]3(C)[C@H](CC[C@@H]4[C@@]5(C)CC[C@H](OC(=O)CC(C)(C)C(=O)O)C(C)(C)[C@@H]5CC[C@]43C)[C@@H]12 [BEVIRIMAT]			97																		fraction unbound [3]: < 0.001
C=C(C)[C@@H]1CC[C@]2(NCCN3CCS(=O)(=O)CC3)CC[C@]3(C)[C@H](CC[C@@H]4[C@@]5(C)CC=C(c6ccc(C(=O)O)cc6)C(C)(C)[C@@H]5CC[C@]43C)[C@@H]12 [BMS-955176]	6		2	3	700	13000															
C=C(C)[C@@H]1CC[C@]2(NCC[C@]3(O)CC[C@@H](S(C)(=O)=O)CC3)CC[C@]3(C)[C@H](CC[C@@H]4[C@@]5(C)CC=C(C6=CC[C@](CF)(C(=O)O)CC6)C(C)(C)[C@@H]5CC[C@]43C)[C@@H]12	5.1	3	5.8	2	6.4	21000	1.6	4.5	> 700	24	> 2	3.8	1.38	4.3	0.8	1.42	8.11	3.5	21 (≈ 16.2 µg/mL)	0.11	Cmax [12]: 1960 nM; Cmax [13]: 1610 nM; bioavailability [16]: 21%; half-life [18]: 13.4 h; clearance [19]: 0.38 mL/min/kg; Vd [24]: 0.31 L/kg; AUC(0-t) [25]: 35.3 µM·h; half-life [26]: 4.2 h; MRT [27]: 13.2 h; EC50 [28]: 9.3 nM; AUC(0-t) [29]: 23.3 µM·h; bioavailability [33]: 31%; Cmax [34]: 830 nM
C=C(C)[C@@H]1CC[C@]2(NCCC3(O)COC3)CC[C@]3(C)[C@H](CC[C@@H]4[C@@]5(C)CC=C(C6=CC[C@](CF)(C(=O)O)CC6)C(C)(C)[C@@H]5CC[C@]43C)[C@@H]12	5.3		10	4.1	7	18000	1.7	6.1	32 (≈ 21.3 µg/mL)	140	> 2	2.7	> 2	6.6	1	1.33	27.3	6.5	4 (≈ 2.66 µg/mL)	0.12	half-life [26]: 3.6 h; EC50 [28]: 17 nM; Cmax [34]: 3860 nM
C=C(C)[C@@H]1CC[C@]2(NCC[C@]3(O)CC[C@](C)(O)CC3)CC[C@]3(C)[C@H](CC[C@@H]4[C@@]5(C)CC=C(C6=CC[C@](CF)(C(=O)O)CC6)C(C)(C)[C@@H]5CC[C@]43C)[C@@H]12	6		6.3	3.8	8.1	16000	2.1	5.1	> 480	20	> 2	3.6	> 2	8	0.8	> 2	6.19	3.7	< 1	0.11	half-life [26]: 3.9 h; EC50 [28]: 13 nM; Cmax [34]: 720 nM
C=C(C)[C@@H]1CC[C@]2(NCCN3CCS(=O)(=O)CC3)CC[C@]3(C)[C@H](CC[C@@H]4[C@@]5(C)CC=C(C6=CC[C@@](CF)(C(=O)O)CC6)C(C)(C)[C@@H]5CC[C@]43C)[C@@H]12.Cl.Cl									800										310		
C=C(C)[C@@H]1CC[C@]2(NCCN3CCS(=O)(=O)CC3)CC[C@]3(C)[C@H](CC[C@@H]4[C@@]5(C)CC=C(C6=CC[C@@](CF)(C(=O)O)CC6)C(C)(C)[C@@H]5CC[C@]43C)[C@@H]12	3		4.6		7	15600	3	3			1.47	4.9	1.83	26	1.8	1.45		6.5		0.14	
C=C(C)[C@@H]1CC[C@]2(C(=O)NCCOC)CC[C@]3(C)[C@H](CC[C@@H]4[C@@]5(C)CC=C(c6ccc(C(=O)O)cc6)C(C)(C)[C@@H]5CC[C@]43C)[C@@H]12		152																			
